Assay [1] has as its target T1, GHRHR (Homo sapiens, UniProt Q02643).
T1 sequence (Q02643 23-423): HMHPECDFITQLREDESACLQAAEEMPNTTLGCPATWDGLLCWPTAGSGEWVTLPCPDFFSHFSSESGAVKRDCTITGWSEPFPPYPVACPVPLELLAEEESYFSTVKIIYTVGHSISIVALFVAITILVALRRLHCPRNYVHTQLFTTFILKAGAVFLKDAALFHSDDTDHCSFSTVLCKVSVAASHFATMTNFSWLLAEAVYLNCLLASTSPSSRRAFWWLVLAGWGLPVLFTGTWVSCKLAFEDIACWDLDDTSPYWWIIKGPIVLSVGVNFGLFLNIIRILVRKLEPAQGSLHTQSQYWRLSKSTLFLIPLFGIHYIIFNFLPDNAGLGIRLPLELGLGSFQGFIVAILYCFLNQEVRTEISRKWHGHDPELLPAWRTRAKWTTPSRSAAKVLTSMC
Nature of the assay: cAMP accumulation. Particulars: COS-7, COS-7, % of max, receptor only, mean ± SEM n≥3. Background: cAMP levels reflect the balance of adenylyl cyclase and phosphodiesterase activity.

In assay [2] the target is T2, SV1 (Homo sapiens, UniProt Q02643).
T2 sequence (Q02643 90-423 limits assumed): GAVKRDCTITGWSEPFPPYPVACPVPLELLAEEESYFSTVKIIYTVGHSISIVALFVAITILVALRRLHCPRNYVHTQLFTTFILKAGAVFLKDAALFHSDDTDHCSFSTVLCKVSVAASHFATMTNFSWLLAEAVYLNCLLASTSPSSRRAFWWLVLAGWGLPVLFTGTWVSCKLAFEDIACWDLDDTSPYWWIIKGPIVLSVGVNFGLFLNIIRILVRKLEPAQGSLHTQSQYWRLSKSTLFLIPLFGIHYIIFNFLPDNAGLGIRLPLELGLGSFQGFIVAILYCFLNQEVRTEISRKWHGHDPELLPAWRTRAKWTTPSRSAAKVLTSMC
The assay can be described thus: cAMP accumulation. Particulars: COS-7, COS-7, % of max, receptor only, mean ± SEM n≥3.

Assay [3] has as its target T1, GHRHR. The assay can be described thus: Gαq activation. Particulars: HEK293-A, HEK293A, % of max, receptor only, mean ± SEM n≥3.
Assay [4] concerns the target T2, SV1. The assay can be described thus: Gαq activation. Particulars: HEK293A; no RAMP; data not shown.
In assay [5] the target is T1, GHRHR. Nature of the assay: β-Arrestin1 recruitment. To be noted: COS-7, COS-7, % of max, receptor only, mean ± SEM n≥3.
Assay [6] addresses T2, SV1. Nature of the assay: β-Arrestin1 recruitment. Particulars: COS-7, COS-7, % of max, receptor only, mean ± SEM n≥3. Background: Recruitment of arrestin is a read-out of receptor activation apart from second messengers.
The subject of assay [7] is β2-AR. The assay can be described thus: cAMP accumulation. Particulars: COS-7, mean ± SEM n≥3.
The test system of assay [8] is β2-AR. Nature of the assay: Gαq activation. To be noted: HEK293A, mean ± SEM n≥3.
For assay [9], the system named is β2-AR. Nature of the assay: β-Arrestin1 recruitment. Particulars: COS-7, mean ± SEM n≥3; for Emax: % of max, receptor only.
The subject of assay [10] is β2-AR. Nature of the assay: β-Arrestin2 recruitment. Particulars: COS-7, mean ± SEM n≥3; for Emax: % of max, receptor only.
The target in a further assay is CLR (Homo sapiens, UniProt Q16602). The assay can be described thus: BRET GPCR–RAMP interaction. The assay is classed as binding. To be noted: COS-7; receptor-Rluc8:RAMP-Ypet 1:0.25 to 1:16; pH 7.4, 37 °C; mean ± SEM n≥3. On the technique in general: In BRET a luciferase serves as donor, and the signal depends on an acceptor being close.
For another assay, the target named is GCGR (Homo sapiens, UniProt P47871). The assay can be described thus: BRET GPCR–RAMP interaction. The format is binding. Particulars: COS-7; receptor-Rluc8:RAMP-Ypet 1:0.25 to 1:16; pH 7.4, 37 °C; mean ± SEM n≥3.
Assay [11] deals with T1, GHRHR. The assay can be described thus: BRET GPCR–RAMP interaction. Particulars: COS-7. The format is binding.
The target of assay [12] is T2, SV1. Nature of the assay: BRET GPCR–RAMP interaction. The assay is classed as binding. To be noted: COS-7; receptor-Rluc8:RAMP-Ypet 1:0.25 to 1:16; pH 7.4, 37 °C; mean ± SEM n≥3.
Another assay addresses T3, GIPR (Homo sapiens, UniProt P48546).
T3 sequence (P48546 22-466): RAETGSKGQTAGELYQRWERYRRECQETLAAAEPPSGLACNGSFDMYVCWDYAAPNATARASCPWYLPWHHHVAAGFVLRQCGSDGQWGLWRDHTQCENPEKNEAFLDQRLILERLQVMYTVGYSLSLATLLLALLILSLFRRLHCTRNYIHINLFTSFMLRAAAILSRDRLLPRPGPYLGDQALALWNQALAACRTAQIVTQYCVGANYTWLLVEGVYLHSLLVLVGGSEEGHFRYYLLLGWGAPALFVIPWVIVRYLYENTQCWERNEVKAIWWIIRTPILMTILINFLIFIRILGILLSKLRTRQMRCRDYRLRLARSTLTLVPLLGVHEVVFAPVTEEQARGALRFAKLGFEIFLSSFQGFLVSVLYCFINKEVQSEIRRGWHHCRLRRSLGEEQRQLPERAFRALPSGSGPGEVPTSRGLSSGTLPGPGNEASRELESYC
The assay can be described thus: BRET GPCR–RAMP interaction. The format is binding. To be noted: COS-7; receptor-Rluc8:RAMP-Ypet 1:0.25 to 1:16; pH 7.4, 37 °C; mean ± SEM n≥3.

Another assay addresses GLP-1R (Homo sapiens, UniProt P43220). The assay can be described thus: BRET GPCR–RAMP interaction. To be noted: COS-7; receptor-Rluc8:RAMP-Ypet 1:0.25 to 1:16; pH 7.4, 37 °C; mean ± SEM n≥3. The format is binding.
The target of a further assay is T4, GLP-2R (Homo sapiens, UniProt O95838).
T4 sequence (O95838 1-553): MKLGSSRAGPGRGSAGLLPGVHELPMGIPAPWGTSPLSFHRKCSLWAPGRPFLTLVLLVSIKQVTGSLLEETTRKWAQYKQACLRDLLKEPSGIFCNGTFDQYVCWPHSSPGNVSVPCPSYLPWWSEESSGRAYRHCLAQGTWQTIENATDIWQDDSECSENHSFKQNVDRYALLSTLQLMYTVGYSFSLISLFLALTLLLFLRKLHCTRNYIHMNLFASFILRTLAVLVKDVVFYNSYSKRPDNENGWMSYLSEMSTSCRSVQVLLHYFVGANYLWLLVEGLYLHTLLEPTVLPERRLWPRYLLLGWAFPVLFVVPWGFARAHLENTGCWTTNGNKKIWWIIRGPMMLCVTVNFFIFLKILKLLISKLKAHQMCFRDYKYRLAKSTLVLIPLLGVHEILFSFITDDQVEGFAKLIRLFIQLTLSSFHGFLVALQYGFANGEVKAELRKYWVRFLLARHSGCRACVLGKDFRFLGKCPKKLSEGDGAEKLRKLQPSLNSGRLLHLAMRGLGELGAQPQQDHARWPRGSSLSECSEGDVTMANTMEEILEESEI
The assay can be described thus: BRET GPCR–RAMP interaction. The assay is classed as binding. To be noted: COS-7.

In a further assay the test system is SCTR. Nature of the assay: BRET GPCR–RAMP interaction. The assay is classed as binding. Particulars: COS-7; receptor-Rluc8:RAMP-Ypet 1:0.25 to 1:16; pH 7.4, 37 °C; mean ± SEM n≥3.
Another assay deals with COS-7 cells. Nature of the assay: RAMP cell surface expression. Particulars: co-expression with SCTR, FLAG-RAMP. The format is cell-based.
Assay [13] deals with T1, GHRHR. Particulars: HEK293T cells ref [11]; cited from earlier work.
[14] abbreviates: receptor-Rluc8:RAMP-Ypet 1:0.25 to 1:16, pH 7.4, 37 °C, mean ± SEM n≥3.

Entries after “also recorded” stand apart in the source; their conditions may differ. Where two headings read alike, the source gives them in different places.

Sequence of GCGR (P47871 26-477, species assumed): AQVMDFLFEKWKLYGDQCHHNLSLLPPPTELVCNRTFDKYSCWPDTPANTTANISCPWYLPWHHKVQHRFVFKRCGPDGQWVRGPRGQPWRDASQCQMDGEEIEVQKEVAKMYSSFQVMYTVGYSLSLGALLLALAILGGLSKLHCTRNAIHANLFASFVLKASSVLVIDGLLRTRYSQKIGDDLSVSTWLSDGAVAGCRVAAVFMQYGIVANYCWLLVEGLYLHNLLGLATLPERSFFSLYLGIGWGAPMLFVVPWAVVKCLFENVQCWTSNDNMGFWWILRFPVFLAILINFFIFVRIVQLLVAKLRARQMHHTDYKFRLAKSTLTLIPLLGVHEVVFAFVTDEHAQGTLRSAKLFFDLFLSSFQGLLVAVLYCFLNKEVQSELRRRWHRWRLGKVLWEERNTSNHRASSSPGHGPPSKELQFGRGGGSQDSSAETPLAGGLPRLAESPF
Sequence of GLP-1R (P43220 24-463): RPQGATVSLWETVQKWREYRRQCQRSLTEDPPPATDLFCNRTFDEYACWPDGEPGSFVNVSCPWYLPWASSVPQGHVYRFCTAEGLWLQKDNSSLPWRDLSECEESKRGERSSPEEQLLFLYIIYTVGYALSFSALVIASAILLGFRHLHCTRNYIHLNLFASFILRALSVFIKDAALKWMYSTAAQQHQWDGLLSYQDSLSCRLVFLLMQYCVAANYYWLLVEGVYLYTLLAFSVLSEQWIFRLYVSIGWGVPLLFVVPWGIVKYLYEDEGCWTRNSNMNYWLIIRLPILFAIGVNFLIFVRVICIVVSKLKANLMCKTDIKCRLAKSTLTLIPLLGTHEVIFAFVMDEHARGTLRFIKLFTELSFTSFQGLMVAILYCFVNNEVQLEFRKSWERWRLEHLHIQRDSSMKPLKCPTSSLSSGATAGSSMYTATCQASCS
Sequence of CLR (Q16602 23-461): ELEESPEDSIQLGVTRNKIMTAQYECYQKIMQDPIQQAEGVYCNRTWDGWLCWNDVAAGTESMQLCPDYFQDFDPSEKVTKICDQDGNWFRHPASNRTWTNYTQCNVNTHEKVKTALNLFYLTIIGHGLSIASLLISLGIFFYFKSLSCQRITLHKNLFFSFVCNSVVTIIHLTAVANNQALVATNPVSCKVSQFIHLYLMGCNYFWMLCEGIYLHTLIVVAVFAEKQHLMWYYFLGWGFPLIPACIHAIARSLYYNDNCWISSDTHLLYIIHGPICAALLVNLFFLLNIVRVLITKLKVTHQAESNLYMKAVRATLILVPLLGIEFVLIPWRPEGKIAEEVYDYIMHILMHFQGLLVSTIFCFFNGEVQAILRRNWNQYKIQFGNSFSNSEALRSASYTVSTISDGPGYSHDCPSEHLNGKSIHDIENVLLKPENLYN

Consider `CC[C@H](C)[C@H](NC(=O)[C@H](C)NC(=O)[C@H](CC(=O)O)NC(=O)[C@H](C)NC(=O)[C@@H](N)Cc1ccc(O)cc1)C(=O)N[C@@H](Cc1ccccc1)C(=O)N[C@H](C(=O)N[C@@H](CC(N)=O)C(=O)N[C@@H](CO)C(=O)N[C@@H](Cc1ccc(O)cc1)C(=O)N[C@@H](CCCNC(=N)N)C(=O)N[C@@H](CCCCN)C(=O)N[C@H](C(=O)N[C@@H](CC(C)C)C(=O)NCC(=O)N[C@@H](CCC(N)=O)C(=O)N[C@@H](CC(C)C)C(=O)N[C@@H](CO)C(=O)N[C@@H](C)C(=O)N[C@@H](CCCNC(=N)N)C(=O)N[C@@H](CCCCN)C(=O)N[C@@H](CC(C)C)C(=O)N[C@@H](CC(C)C)C(=O)N[C@@H](CCC(N)=O)C(=O)N[C@@H](CC(=O)O)C(=O)N[C@H](C(=O)N[C@@H](CCSC)C(=O)N[C@@H](CO)C(=O)N[C@@H](CCCNC(=N)N)C(=O)N[C@@H](CCC(N)=O)C(=O)N[C@@H](CCC(N)=O)C(=O)NCC(=O)N[C@@H](CCC(=O)O)C(=O)N[C@@H](CO)C(=O)N[C@@H](CC(N)=O)C(=O)N[C@@H](CCC(N)=O)C(=O)N[C@@H](CCC(=O)O)C(=O)N[C@@H](CCCNC(=N)N)C(=O)NCC(=O)N[C@@H](C)C(=O)N[C@@H](CCCNC(=N)N)C(=O)N[C@@H](C)C(=O)N[C@@H](CCCNC(=N)N)C(=O)N[C@@H](CC(C)C)C(N)=O)[C@@H](C)CC)C(C)C)[C@@H](C)O` [GHRH, growth hormone-releasing hormone], for which the Emax at GHRHR [1] (RAMP1) was found to be 104 ± 1.2%; on GHRHR [1] (RAMP2), 102 ± 1.4%; at GHRHR [1] (RAMP3), 100 ± 1.5%; at SV1 [2] (RAMP1), 100 ± 3.4%; on SV1 [2] (RAMP2) it was 102 ± 4.2%; at SV1 [2] (RAMP3), 100 ± 2%. Also, the Emax was determined as 100 ± 1.8% on SV1 [2] (vector (no RAMP)); 91.8 ± 8.3% on GHRHR [3] (RAMP1); 87.9 ± 8% on GHRHR [3] (RAMP3); 100 ± 6.9% at GHRHR [3] (vector (no RAMP)); 124 ± 42.2% on GHRHR [5] (RAMP1); 124 ± 34% at GHRHR [5] (RAMP2). Moreover, the Emax came to 102 ± 45.7% on GHRHR [5] (RAMP3); 100 ± 25.3% on GHRHR [5] (vector (no RAMP)); 188 ± 36.8% at SV1 [6] (RAMP1); 182 ± 44.2% at SV1 [6] (RAMP2); 168 ± 49.1% on SV1 [6] (RAMP3); 100 ± 11.2% on SV1 [6] (vector (no RAMP)). For the same molecule, the “Gαq response, receptor alone” value on SV1 [4] is given as “did not affect Gαq response”.
In the case of (−)-Adrenaline, the pEC50 in the assay with β2-AR [7] (RAMP1) was determined as 9.6 ± 0.1; in the assay on β2-AR [7] (RAMP2), 9.7 ± 0; with β2-AR [7] (RAMP3), 9.7 ± 0.1; in the assay on β2-AR [7] (vector (no RAMP)), 9.6 ± 0; in the assay with β2-AR [8] (RAMP1) it was 6.5 ± 0.2; in the assay with β2-AR [8] (RAMP2), 6.3 ± 0.4. The pEC50 in the assay on β2-AR [8] (RAMP3) was 6.9 ± 0.3; in the assay on β2-AR [8] (vector (no RAMP)) it was 6.9 ± 0.2; in the assay with β2-AR [9] (RAMP1), 6 ± 0.4; in the assay with β2-AR [9] (RAMP2) it was 5.8 ± 0.5; in the assay on β2-AR [9] (RAMP3), 6 ± 0.4; in the assay with β2-AR [9] (vector (no RAMP)), 6.2 ± 0.3. Further, the pEC50 worked out at 6.7 ± 0.2 in the assay with β2-AR [10] (RAMP1), 6.5 ± 0.2 with β2-AR [10] (RAMP2), 6.4 ± 0.2 with β2-AR [10] (RAMP3) and 6.4 ± 0.1 in the assay on β2-AR [10] (vector (no RAMP)). The Emax in the assay on β2-AR [9] (RAMP1) worked out at 77.3 ± 11.1%; with β2-AR [9] (RAMP2), 83.4 ± 15%; in the assay on β2-AR [10] (RAMP1), 79.1 ± 5.7%; with β2-AR [10] (RAMP2), 90 ± 5.4%; with β2-AR [10] (RAMP3), 79.2 ± 6.1%.
For “receptor activity-modulating protein 1 [RAMP1]”, the “Bmax (maximum measured BRET value)” value in the assay with CLR turned out to be 0.460 ± 0.017; in the assay with GCGR, 1.149 ± 0.109; with GHRHR [11] (setting [14]) it was 1.122 ± 0.193; with SV1 [12], 1.364 ± 0.244; in the assay with GIPR, 1.316 ± 0.203; with GLP-1R, 2.039 ± 1.234. For the same molecule, the “Bmax (maximum measured BRET value)” value with GLP-2R (setting [14]) is recorded as “Linear fit”; in the assay on SCTR, 0.573 ± 0.021. Also, the interaction in words result was “readily observed” with GHRHR [11] (BRET), “poor interaction; also recorded: rather weak” in the assay with GLP-2R (BRET) and “insignificant” with GHRHR [13]. In addition, the “RAMP cell surface expression” value with COS-7 cells was “promoted cell surface translocation”.

One may read the Emax as the maximal effect, on the per cent scale that the assay sets. Broadly, the pEC50 is the negative decadic logarithm of the EC50, by convention in mol/L. Lower therefore signals a high EC50.

Source of the values: PMC8897147 (Acta Pharmaceutica Sinica. B, 2021).
